From US20220332774A1, “THERAPEUTIC MITOCHONDRIAL PEPTIDES” (priority 2019, published 2022)

Tests used:
H4-IIE Cells = assay: Glucose production in cultured H4-IIE cells; assay type: cell-based, rat; settings: glucose concentration in medium relative to untreated cells; 5 μM peptide, 24 h
In short: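 Rat H4-IIE hepatoma cells primed overnight in glucose-free DMEM with 2 mM pyruvate and 10 mM lactate, then treated 24 h at 37 °C with 5 μM peptide (0.1% DMSO; concentration assumes ~2000 Da). Medium glucose measured colorimetrically at 570 nm. Values are percent of untreated-cell glucose production; 0.5-1 nM insulin served as inhibitor reference.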

C2C12 Cells = assay: Glucose utilization in cultured C2C12 cells (myotubes); assay type: cell-based, mouse; settings: glucose concentration in medium relative to untreated cells; 5 μM peptide, 22 h
In short: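 Differentiated mouse myotubes (5 days in 2% horse serum) serum-starved 5 h, then treated 22 h at 37 °C with peptide at 5 μM final (0.1% DMSO) in low-glucose (1 g/L) DMEM. Glucose remaining in medium measured colorimetrically at 570 nm. Expressed as percent of untreated control, from 2–3 experiments in triplicate.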

3T3-L1 Mouse Adipocytes = assay: Free fatty acid levels in cultured 3T3-L1 mouse adipocytes (isoproterenol stimulated); assay type: cell-based; settings: free fatty acid in medium; 5 μM peptide, 20-22 h pre-incubation then 3 h with 0.1 nM isoproterenol; isoproterenol alone = 100%
In short: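 3T3-L1 cells differentiated 12 days, insulin withdrawn, then peptides added on day 13 at 5 μM (0.1% DMSO) for 20-22 h at 37° C. After 3 h in assay buffer, medium free fatty acids read at 540 nm. Values expressed as percent of 0.1 nM isoproterenol-alone control.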

Substance	Percent of Control Activity (H4-IIE Cells) [%]	Percent of Control Activity (C2C12 Cells) [%]	Percent of Isoproterenol Control Activity (3T3-L1 Mouse Adipocytes) [%]
159 (MWGVSDMLVFLEV) [compound 159]	111	102	100
160 (MWLGVGLGWVG) [compound 160]	102	94	102
161 (MWLIEEYAMSDF) [compound 161]	114	103	99
162 (MWLVLWLWML) [compound 162]	113	103	106
163 (MWMPPTLPHIR) [compound 163]	110	105	87
164 (MWNDLLQCSEP) [compound 164]	109	102	116
165 (MWRVLGALWW) [compound 165]	125	95	108
166 (MWSHPSHHSTINITNKWLL) [compound 166]	105	105	96
168 (MYCNWDCSGE) [compound 168]	120	103	108
169 (MYLNGTCSAS) [compound 169]	109	107	110
170 (MYNYAKAPTL) [compound 170]	109	106	95
171 (MYRHLQQTLMKATK) [compound 171]	100	110	104
172 (MYTNKQCSTSNYY) [compound 172]	111	106	94
173 (MYTPTNNVQPVTTTNQRP) [compound 173]	103	95	114
174 (MYYSDGYWGVSWGMGV) [compound 174]	110	93	105
176 (MKNIEAPLAW) [compound 176]	108	103	95
177 (MRMGASIGSTTRLSTS) [compound 177]	111	91	94
178 (MVQTVSISWASEMLVLVSFVVSV) [compound 178]	108	99	90
179 (MSSSMMGEVASC) [compound 179]	100	105	102
180 (MVVGSWCWSLSWVVGMR) [compound 180]	106	103	101
181 (MCHWAGGASNTGDA) [compound 181]	109	107	103

Substance	Percent of Control Activity (H4-IIE Cells) [%]	Percent of Control Activity (C2C12 Cells) [%]	Percent of Isoproterenol Control Activity (3T3-L1 Mouse Adipocytes) [%]
182 (MFAVSMMWSLE) [compound 182]	113	98	92
183 (MMKVDATMDFT) [compound 183]	121	101	94
184 (MASAKGCSSP) [compound 184]	118	106	104
185 (MLVMLEVMFLVN) [compound 185]	119	92	86
186 (MIINDEYWLVVLVMVHCPESMLLK) [compound 186]	115	94	105
187 (AYEGCCYSCKQEDNADVSGFWVEK) [compound 187]	113	110	102
188 (DWSNWVWGVQLYVWDFLGSGCWAW) [compound 188]	125	113	104
189 (FEELINVWVWVYMSQWEFYDGPCN) [compound 189]	116	98	95
190 (MYHSENSMMDHVTNNATGMNIMEK) [compound 190]	118	107	101
191 (LGWGWPGGWVWGGGFMVEERWWEL) [compound 191]	111	95	101
192 (LGWVVGSFFMGGVWVGRSGIGGML) [compound 192]	110	98	104
193 (LHNNPNPNTNYLPNWKQNTQMGLS) [compound 193]	110	110	105
194 (LSPKPQQLNQQNCSPEHYEPQLKT) [compound 194]	109	92	103
195 (LTSKYSNQPSTITHQLQLQSHPSP) [compound 195]	108	112	110
196 (LVPFDRGDLEGELTGTGMLACVIL) [compound 196]	116	97	98
197 (WVEVMMEVEIWCCEIVLGNSFSSQ) [compound 197]	105	102	100
198 (PIVTIMSPSWLEVEKATIFLMSFC) [compound 198]	100	88	112
199 (PLCKIHCRIHLYYQSLPHNNIHVP) [compound 199]	111	94	105
200 (RLLAWGNTWWQLLWNEGLFFWLEL) [compound 200]	97	93	104
201 (TKNFHQTPPPPLLATALKHISAKP) [compound 201]	109	96	102
202 (MWVIEEYAKILRSWVWFNPPQLPA) [compound 202]	103	89	93
